Laboratory results reported in patent US20200087248A1, “Fluoroallylamine Derivative And Use Thereof” (SICHUAN KELUN-BIOTECH BIOPHARMACEUTICAL CO., LTD., priority 2017, published 2020).
Counter-ions that a name gives are not always drawn.

Assays:
hERG = target: T1, hERG (Homo sapiens, UniProt Q12809); assay: hERG fluorescence polarization inhibition experiment; conditions: hERG cell membrane, 25° C. 2 hours, read-out: hERG (IC50 range, competitive binding vs tracer)
T1 construct: purchased ThermoFisher; host or cells: hERG cell membrane supplied with the kit
T1 sequence (Q12809 whole entry): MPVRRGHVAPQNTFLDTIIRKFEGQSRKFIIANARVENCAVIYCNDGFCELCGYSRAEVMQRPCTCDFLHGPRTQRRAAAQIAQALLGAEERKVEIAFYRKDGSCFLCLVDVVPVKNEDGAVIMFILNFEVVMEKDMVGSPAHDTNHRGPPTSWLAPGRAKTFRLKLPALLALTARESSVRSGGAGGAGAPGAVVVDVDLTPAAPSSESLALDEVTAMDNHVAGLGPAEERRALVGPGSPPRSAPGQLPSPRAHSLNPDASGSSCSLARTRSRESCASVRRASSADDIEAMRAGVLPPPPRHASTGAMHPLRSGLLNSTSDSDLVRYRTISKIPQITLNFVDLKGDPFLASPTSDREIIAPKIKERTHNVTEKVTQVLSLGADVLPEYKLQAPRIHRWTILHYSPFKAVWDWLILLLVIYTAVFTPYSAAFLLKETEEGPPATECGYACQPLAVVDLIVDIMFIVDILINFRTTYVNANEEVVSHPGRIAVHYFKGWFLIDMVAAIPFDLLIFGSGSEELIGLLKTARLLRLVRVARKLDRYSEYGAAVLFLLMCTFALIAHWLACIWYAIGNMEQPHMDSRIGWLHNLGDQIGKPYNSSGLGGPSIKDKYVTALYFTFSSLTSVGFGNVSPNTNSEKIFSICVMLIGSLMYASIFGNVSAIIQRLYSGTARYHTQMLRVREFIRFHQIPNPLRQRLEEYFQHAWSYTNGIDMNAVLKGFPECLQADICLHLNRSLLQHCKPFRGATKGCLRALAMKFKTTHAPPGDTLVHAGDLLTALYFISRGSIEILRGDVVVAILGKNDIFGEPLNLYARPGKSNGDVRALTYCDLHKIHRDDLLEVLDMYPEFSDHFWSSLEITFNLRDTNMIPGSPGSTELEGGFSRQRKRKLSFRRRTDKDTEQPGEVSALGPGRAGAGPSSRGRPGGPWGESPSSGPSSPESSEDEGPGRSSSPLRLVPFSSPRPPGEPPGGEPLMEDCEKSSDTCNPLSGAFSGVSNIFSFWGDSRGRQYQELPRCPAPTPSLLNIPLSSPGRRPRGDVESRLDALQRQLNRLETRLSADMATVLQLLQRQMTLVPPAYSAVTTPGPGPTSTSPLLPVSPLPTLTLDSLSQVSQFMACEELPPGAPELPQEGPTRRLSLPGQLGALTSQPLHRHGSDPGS
Method: hERG (Ether-a-go-go-related Gene Potassium Channel) Inhibition Experiment
Reagent: Predictor™ hERG Fluorescence Polarization Assay Kit, Manufacturer: ThermoFisher
The above test kit was used to evaluate the potential of the compound for inducing heart QT prolongation. According to the method as indicated in the specification of the test kit, the test compound, the positive control (E4031) and negative control (Experimental buffer solution) in the kit were added to a microwell plate containing hERG cell membrane, and then a tracer having high affinity to hERG was added. The microwell plate was then incubated at 25° C. for 2 hours, a BMG PHAREStar polyfunctional enzyme marker was used to test the variations in the fluorescent polarization value. By calculating the percent inhibition rates (%) at different concentrations, the range of the half inhibition concentration (IC50) was determined:
Percent inhibition rate (%)=(1-(mP of the test compound-mP of 30 μM E4031)/(mP of experimental buffer solution-mP of 30 μM E4031))*100.

VAP-1 = target: T2, VAP-1 (Homo sapiens, UniProt Q16853); assay: Inhibition of the enzymatic activity of VAP-1 in vitro (Amplex Red); assay type: biochemical; conditions: VAP-1 protein about 20 nM, 10 min pre-incubation, benzylamine substrate; read-out: IC50, inhibition against the enzymatic activity of VAP-1
T2 construct: purchased R&D Systems
T2 sequence (Q16853 1-763): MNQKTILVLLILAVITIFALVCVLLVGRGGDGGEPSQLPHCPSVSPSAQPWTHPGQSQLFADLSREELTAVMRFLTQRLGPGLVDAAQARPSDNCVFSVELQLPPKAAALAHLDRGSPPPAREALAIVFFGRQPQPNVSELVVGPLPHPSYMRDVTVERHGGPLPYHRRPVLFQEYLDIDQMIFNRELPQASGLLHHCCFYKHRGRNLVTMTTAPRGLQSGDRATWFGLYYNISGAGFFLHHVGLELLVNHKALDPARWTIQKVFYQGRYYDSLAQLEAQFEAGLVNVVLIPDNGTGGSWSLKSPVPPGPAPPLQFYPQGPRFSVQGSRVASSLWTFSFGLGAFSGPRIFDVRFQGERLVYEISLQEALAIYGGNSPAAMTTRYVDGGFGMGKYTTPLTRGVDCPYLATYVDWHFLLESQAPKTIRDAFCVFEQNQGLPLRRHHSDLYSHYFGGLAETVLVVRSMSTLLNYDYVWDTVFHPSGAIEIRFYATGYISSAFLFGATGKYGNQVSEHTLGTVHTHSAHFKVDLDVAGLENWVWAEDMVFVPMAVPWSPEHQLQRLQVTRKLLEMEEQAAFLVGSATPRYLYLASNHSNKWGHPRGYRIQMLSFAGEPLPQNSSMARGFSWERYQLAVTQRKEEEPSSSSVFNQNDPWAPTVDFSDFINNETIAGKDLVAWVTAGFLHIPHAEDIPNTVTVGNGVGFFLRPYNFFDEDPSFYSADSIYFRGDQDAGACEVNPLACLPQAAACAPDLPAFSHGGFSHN
Method: Inhibition Experiment Against the Enzymatic Activity of VAP-1(Vascular Adhesion Protein 1) in vitro
Test kit: Amplex® Red Monoamine Oxidase Assay, Manufacturer: ThermoFisher
Reaction buffer solution: 50 mM PBS, pH 7.4
Enzyme: VAP-1, Manufacturer: R&D Systems
VAP-1 protein (about 20 nM) and different concentrations of the test compound were pre-incubated at room temperature for 10 minutes, followed by an addition of […] benzylamine hydrochloride, 1 U/mL HRP and 200 μM Amplex Red reagent according to the specification of the test kit to start the reaction. The reaction plate was placed in the enzyme marker, and in kinetic mode, fluorescence signals were measured at Ex/Em=540/590 nm. The relative inhibition activity of each concentration group was calculated, wherein the ratio (slope) of fluorescence signal to reaction time in the linear range is the reaction rate, the vehicle group (DMSO) is the negative control, and the reaction buffer solution group (without enzymes and the compounds) is the blank control. The half inhibition concentration (IC50) of the compound was calculated according to four-parameter model fitting curve.

IC50 (VAP-1) [nM]	Structure (SMILES)	IC50 (hERG) [nM]
0.5	NCC(=CF)COc1ccc(C(=O)Nc2ccccc2)cc1 [TM1, N-phenyl-4-((2-aminomethyl-3-fluoroallyl)oxy)-benzamide trifluoroacetate]	> 10000
9.9 ± 1.2	NC/C(=C\F)COc1ccc2c(c1)CCNC2=O [TM26-E, (E)-6-((2-aminomethyl-3-fluoroallyl)oxy)-3,4-dihydroisoquinolin-1(2H)-one trifluoroacetate]	> 10000
4.9 ± 0.5	NC/C(=C\F)COc1ccc2c(c1)CN(Cc1ccc(Cl)cc1)C2=O [TM33-E, (E)-5-((2-aminomethyl-3-fluoroallyl)oxy)-2-(4-chlorobenzyl)isoindolin-1-one]	> 10000
6.3 ± 1.2	NC/C(=C/F)COc1ccc2c(c1)CN(Cc1ccc(Cl)cc1)C2=O [TM33-Z, (Z)-5-((2-aminomethyl-3-fluoroallyl)oxy)-2-(4-chlorobenzyl)isoindolin-1-one]	
1 ± 0.1	NCC(=CF)COc1ccc(-c2ncccn2)cc1 [TM39, 2-(4-(2-pyrimidyl)phenoxymethyl)-3-fluoroallylamine trifluoroacetate]	> 30000
3.1 ± 0.5	NC/C(=C\F)COc1ccc(-c2nc3ccc(Cl)cc3s2)cc1 [TM41-E, (E)-2-(4-(6-chloro-benzothiazol-2-yl)phenoxymethyl)-3-fluoroallylamine trifluoroacetate]	
3.5 ± 0.4	NC/C(=C/F)COc1ccc(-c2nc3ccc(Cl)cc3s2)cc1 [TM41-Z, (Z)-2-(4-(6-chloro-benzothiazol-2-yl)phenoxymethyl)-3-fluoroallylamine trifluoroacetate]	
1.5 ± 0.1	NC/C(=C/F)COc1ccc(-c2nc3ccccc3[nH]2)cc1 [TM42-Z, (Z)-2-(4-(1H-benzoimidazol-2-yl)phenoxymethyl)-3-ftuoroallylamine trifluoroacetate]	> 10000
12.9 ± 4.4	NC/C(=C\F)COc1ccc(C(=O)N2CCC(c3ccccc3)CC2)cc1 [TM44-E, (E)-(4-((2-aminomethyl-3-fluoroallyl)oxy)phenyl)-(4-phenylpiperidine-1-yl) methanone trifluoroacetate]	
9.7 ± 0.9	NC/C(=C/F)COc1ccc(C(=O)N2CCC(c3ccccc3)CC2)cc1 [TM44-Z, (Z)-(4-((2-aminomethyl-3-fluoroallyl)oxy)phenyl)-(4-phenylpiperidine-1-yl) methanone trifluoroacetate]	
2.4 ± 0.7	NC/C(=C\F)COc1ccc(C(=O)N2CCc3ccccc3C2)cc1 [TM45-E, (E)-(4-((2-aminomethyl-3-fluoroallyl)oxy)phenyl)-(3,4-di hydroisoquinoline-2 (1H)-yl)methanone trifluoroacetate]	> 10000
6.5 ± 0.5	NCC(=CF)COc1ccc(C(=O)N2CCC(c3ccccc3)CC2)cc1F [TM48, (4-((2-aminomethyl-3-fluoroallyl)oxy)-3-fluorophenyl)-(4-phenylpiperidin-1-yl)methanone trifluoroacetate]	
9.2 ± 1.1	NC/C(=C\F)COc1ccc(C(=O)N2CCC(c3ccccc3)CC2)cc1F [TM48-E, (E)-(4-((2-(aminomethyl)-3-fluoroally)oxy)-3-fluorophenyl)-(4-phenylpiperidin-1-yl)methanone trifluoroacetate]	
10.6 ± 1.4	NC/C(=C/F)COc1ccc(C(=O)N2CCC(c3ccccc3)CC2)cc1F [TM48-Z, (Z)-(4-((2-(aminomethyl)-3-fluoroallyl)oxy)-3-fluorophenyl)-(4-phenylpiperidin-1-yl)methanone trifluoroacetate]	
1.8 ± 0.2	CN(C)c1cccc(NC(=O)c2ccc(OCC(=CF)CN)cc2)c1 [TM62, N-(3-dimethylaminophenyl)-4-(2-aminomethyl-3-fluoroallyloxy)-benzamide trifluoroacetate]	> 30000
4.1 ± 0.7	NC/C(=C\F)COc1ccc(C(=O)Nc2ccc(F)cc2)cc1Cl [TM65-E, (E)-N-(4-fluorophenyl)-4-((2-aminomethyl-3-fluoroallyl)oxy)-3-chloro-benzamide trifluoroacetate]	
1.7 ± 0.3	NC/C(=C/F)COc1ccc(C(=O)Nc2ccc(F)cc2)cc1Cl [TM65-Z, (Z)-N-(4-fluorophenyl)-4-((2-aminomethyl-3-fluoroallyl)oxy)-3-chloro-benzamide trifluoroacetate]	
9.9 ± 1.8	NCC(=CF)COc1ccc(C(=O)N2CCc3cc(C(F)(F)F)ccc3C2)cc1 [TM68, (4-(2-aminomethyl-3-fluoroallyloxy)phenyl)-(6-trifluoromethyl-3,4-dihydroisoquinol-2(1H)-yl)-methanone trifluoroacetate]	
10.4 ± 1.4	NCC(=CF)COc1ccc(C(=O)N2CCc3ccccc3[C@@H]2c2ccccc2)cc1 [TM69, (S)-(4-(2-aminomethyl)-3-fluoroallyloxy)phenyl)-(1-phenyl-3,4-dihydroisoquinol-2(1H)-yl)-methanone trifluoroacetate]	
2.4 ± 0.2	NCC(=CF)COc1ccc(C(=O)N2Cc3ccc(Cl)cc3C2)cc1 [TM71, (4-(2-aminomethyl-3-fluoroallyloxy)phenyl)-(5-chloroisoindolin-2-yl)-methanone trifluoroacetate]	
4.2 ± 0.3	NC/C(=C\F)COc1ccc(C(=O)N2CCc3c(Cl)cccc3C2)cc1F [TM73-E, (E)-(4-((2-aminomethyl-3-fluoroallyl)oxy)-3-fluorophenyl)-(5-chloro-3,4-di-hydroisoquinoline-2(1H)-yl)methanone trifluoroacetate]	
3.7 ± 0.3	NC/C(=C/F)COc1ccc(C(=O)N2CCc3c(Cl)cccc3C2)cc1F [TM73-Z, (Z)-(4-((2-aminomethyl-3-fluoroallyl)oxy)-3-fluorophenyl)-(5-chloro-3,4-di-hydroisoquinoline-2(1H)-yl)methanone trifluoroacetate]	
3.2 ± 0.2	NC/C(=C\F)COc1ccc(-c2nc3ccc(Cl)cc3s2)cc1F [TM74-E, (E)-2-(4-(6-chloro-benzothiazol-2-yl)-2-fluorophenoxymethyl)-3-fluoroallylamine trifluoroacetate trifluoroacetate]	
5.3 ± 0.2	NC/C(=C/F)COc1ccc(-c2nc3ccc(Cl)cc3s2)cc1F [TM74-Z, (Z)-2-(4-(6-chloro-benzothiazol-2-yl)-2-fluorophenoxymethyl)-3-fluoroallylamine trifluoroacetate trifluoroacetate]	

Structure (SMILES)	IC50 (VAP-1) [nM]	IC50 (hERG) [nM]
NCC(=CF)COc1ccc(C(=O)Nc2cccc3ccccc23)cc1 [TM8, 4-((2-(aminomethyl)-3-fluoroallyl)oxy)-N-(naphthyl)benzoamide trifluoroacetate]	2.2 ± 0.1	
NC/C(=C/F)COc1ccc(C(=O)N2CCc3ccccc3C2)cc1 [TM45-Z, (Z)-(4-((2-aminomethyl-3-fluoroallyl)oxy)phenyl)-(3,4-dihydroiso-quinoline-2(1H)-yl)methanone trifluoroacetate]	1.1 ± 0.1	> 10000
NC/C(=C\F)COc1ccc(C(=O)N[C@H]2CCCc3ccccc32)cc1 [TM63-E, (E)-(S)-N-(1,2,3,4-tetrahydro-1-naphthyl)-4-(2-aminomethyl-3-fluoroallyl)oxy)-benzamide trifluoroacetate]	5.7 ± 0.8	> 10000
NCC(=CF)COc1ccc(C(=O)N2CCc3ccccc3C2)cc1F [TM72, (4-((2-aminomethyl-3-fluoroallyl)oxy)-3-fluorophenyl)-(3,4-tetrahydroisoquinoline-2(1H)-yl)methanone trifluoroacetate]	3.4 ± 0.5	
